BindingDB's records for doi:10.7270/Q2N014XN (Srmlsc, 2007)
pIC50: −log10 of the molar value.

Target: T1, Diphosphomevalonate decarboxylase (Streptococcus pneumoniae serotype 2 (strain D39 / NCTC 7466), UniProt A0A0H2ZN59)
T1 sequence (A0A0H2ZN59 whole entry): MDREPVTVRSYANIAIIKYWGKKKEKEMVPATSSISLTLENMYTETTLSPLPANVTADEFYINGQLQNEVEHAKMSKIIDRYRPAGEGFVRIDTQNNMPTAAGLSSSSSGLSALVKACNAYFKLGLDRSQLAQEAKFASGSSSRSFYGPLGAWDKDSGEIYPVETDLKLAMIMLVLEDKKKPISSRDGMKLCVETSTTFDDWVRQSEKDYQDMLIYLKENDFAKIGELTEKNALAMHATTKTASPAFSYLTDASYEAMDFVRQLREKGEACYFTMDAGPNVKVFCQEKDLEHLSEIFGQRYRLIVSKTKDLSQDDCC
Assay: S. pneumoniae DPM-DC inhibitor potency, dose response, biochemical, PK/LDH-coupled NADH fluorescence, hexokinase coupling counter-screen (AID 550)

| Structure (SMILES) | pIC50 | pIC50 (inactive by the depositor's call) |
| --- | --- | --- |
| CC1CC(C)CN(CCCNC(=O)Cn2ncc3c(=O)oc4ccccc4c32)C1 (stereo unspecified) [MLS000116997] | < 2.00 | – |
| O=C(CCc1nc(-c2ccccc2F)no1)NCCN1CCc2ccccc2C1 [MLS000091170] | < 2.00 | – |
| Cc1cc(-c2ccccc2)nc2cc(C(N)=O)nn12 [7-methyl-5-phenyl-2-pyrazolo[1,5-a]pyrimidinecarboxamide] | < 2.00 | – |
| O=C(NC1CCCCC1)N(CCN1CCCC1)Cc1cc2cc3c(cc2[nH]c1=O)OCCO3 [3-cyclohexyl-1-[(7-oxo-3,6-dihydro-2H-[1,4]dioxino[2,3-g]quinolin-8-yl)methyl]-1-[2-(1-pyrrolidinyl)ethyl]urea] | 4.82 | – |
| CC(C)c1nc(NCC2CCCO2)c(C#N)c2c1COC(C)(C)C2 (stereo unspecified) [3,3-dimethyl-6-(2-oxolanylmethylamino)-8-propan-2-yl-1,4-dihydropyrano[3,4-c]pyridine-5-carbonitrile] | 5.00 | – |
| Cc1ccc(S(=O)(=O)NCCN2CCOCC2)cc1C [3,4-Dimethyl-N-(2-morpholin-4-yl-ethyl)-benzenesulfonamide] | < 2.00 | – |
| Clc1c(-c2nnc3n2CCC3)sc2ccccc12 [3-(3-chloranyl-1-benzothiophen-2-yl)-6,7-dihydro-5H-pyrrolo[2,1-c][1,2,4]triazole] | < 2.00 | – |
| COc1ccc(-n2nc(C(=O)NCc3ccco3)c3c4ccccc4n(C)c3c2=O)cc1Cl [3-(3-chloranyl-4-methoxy-phenyl)-N-(furan-2-ylmethyl)-5-methyl-4-oxidanylidene-pyridazino[4,5-b]indole-1-carboxamide] | 4.82 | – |
| CCOc1ccc(N(CC(=O)Nc2ccc(F)c(F)c2)S(=O)(=O)c2c(C)noc2C)cc1 [MLS000117397] | < 2.00 | – |
| N#CC(C(=O)NC1CCCCC1)c1nc2ccccc2nc1N1CCCCC1 (stereo unspecified) [2-cyano-N-cyclohexyl-2-(3-piperidin-1-ylquinoxalin-2-yl)acetamide] | < 2.00 | – |
| COc1ccc(-c2nn3c(-c4ccccn4)nnc3s2)cc1OC [6-(3,4-dimethoxyphenyl)-3-(2-pyridinyl)-[1,2,4]triazolo[3,4-b][1,3,4]thiadiazole] | 4.05 | – |
| CCOc1cc2[nH]c(=O)n(Cc3ccc(C(=O)NCCOC)cc3)c(=O)c2cc1OCC [MLS000120003] | 3.74 | – |
| O=S(=O)(Nc1cccc2ncccc12)c1cccs1 [MLS000057468] | < 2.00 | – |
| CCN(CC)CCOC(=O)c1ccc(NC=C2C(=O)CC(C)(C)CC2=O)cc1 | < 2.00 | – |
| O=C(c1cc2nc(-c3ccc(F)cc3)cc(C(F)(F)F)n2n1)N1CCCC1 [MLS000109312] | 4.28 | – |
| CCCn1c(=O)c2ccccc2n2c(SCC(=O)C(C#N)C(C)=N)nnc12 (stereo unspecified) [(E)-3-amino-2-[1-oxo-2-[(5-oxo-4-propyl-[1,2,4]triazolo[4,3-a]quinazolin-1-yl)thio]ethyl]-2-butenenitrile] | < 2.00 | – |
| Cn1c(-c2ccc(N)cc2)nc2ccccc21 [4-(1-methyl-2-benzimidazolyl)aniline] | < 2.00 | – |
| O=C(c1noc2c1CCCC2)N1CCCCC1 [1-piperidinyl(4,5,6,7-tetrahydro-1,2-benzoxazol-3-yl)methanone] | < 2.00 | – |
| COc1ccccc1-c1nnc2sc(-c3ccc(N(C)C)cc3)nn12 [4-[3-(2-methoxyphenyl)-[1,2,4]triazolo[3,4-b][1,3,4]thiadiazol-6-yl]-N,N-dimethyl-aniline] | 4.79 | – |

| Structure (SMILES) | pIC50 | pIC50 (inactive by the depositor's call) |
| --- | --- | --- |
| Cc1ccc(S(=O)(=O)N2CCOCC(=O)NCCOCCNC(=O)COCC2)cc1 [16-(4-methylphenyl)sulfonyl-1,7,13-trioxa-4,10,16-triazacyclooctadecane-3,11-dione] | < 2.00 | – |
| COCCOC(=O)c1c(C)oc2ccc(NS(=O)(=O)c3ccc(F)cc3)cc12 [2-methoxyethyl 5-[(4-fluorophenyl)sulfonylamino]-2-methyl-1-benzofuran-3-carboxylate] | < 2.00 | – |
| Cc1cccc(C(=O)Nc2cc(=O)n(C)c(=O)n2C)c1 [MLS000103605] | < 2.00 | – |
| CCOC(=O)c1c(C)n(OCc2ccccc2)c2ccc3c(n[o+]n3[O-])c12 [6-benzoxy-7-methyl-3-oxido-pyrrolo[2,3-g][2,1,3]benzoxadiazol-3-ium-8-carboxylic acid ethyl ester] | < 2.00 | – |
| COC(=O)c1ccc(COc2ccc3c4c(c(=O)oc3c2)CCC4)o1 [5-[(4-keto-2,3-dihydro-1H-cyclopenta[c]chromen-7-yl)oxymethyl]furan-2-carboxylic acid methyl ester] | 4.01 | – |
| Cc1c(C(=O)NC2CC2)oc2ccc(S(=O)(=O)N3CCCCCC3)cc12 [5-(1-azepanylsulfonyl)-N-cyclopropyl-3-methyl-2-benzofurancarboxamide] | < 2.00 | – |
| CCc1ccc(CCC(=O)Nc2ccc(C)c(C)c2)o1 [MLS000064736] | < 2.00 | – |
| COc1ccc(-c2nsc3c(N4CCN(C(=O)c5ccco5)CC4)ncnc23)cc1 [2-furanyl-[4-[3-(4-methoxyphenyl)-7-isothiazolo[4,5-d]pyrimidinyl]-1-piperazinyl]methanone] | 3.88 | – |
| CC(C)(CO)NC(=O)C(c1ccccc1)c1ccccc1 [MLS000062471] | < 2.00 | – |
| COc1cc(NC(=O)c2ccc3c(c2)OCO3)c2ncccc2c1 [MLS000061736] | 4.28 | – |
| COCCNC(=O)c1cnn2c(C(F)(F)F)cc(-c3ccc4c(c3)OCO4)nc12 [5-(1,3-benzodioxol-5-yl)-N-(2-methoxyethyl)-7-(trifluoromethyl)-3-pyrazolo[1,5-a]pyrimidinecarboxamide] | < 2.00 | – |
| COC(=O)C1=C(C)OC(=N)C(C#N)C1c1cc(OC)c(OCC(N)=O)cc1Cl (stereo unspecified) [6-Amino-4-(4-carbamoylmethoxy-2-chloro-5-methoxy-phenyl)-5-cyano-2-methyl-4H-pyran-3-carboxylic acid methyl ester] | < 2.00 | – |
| CCOC(=O)c1c(CC(C)C)csc1NC=O [2-formamido-4-(2-methylpropyl)-3-thiophenecarboxylic acid ethyl ester] | < 2.00 | – |
| Cc1ccc(-n2sc3ccccc3c2=O)cc1S(=O)(=O)N1CCCCC1 [2-(4-methyl-3-piperidin-1-ylsulfonyl-phenyl)-1,2-benzothiazol-3-one] | 5.43 | – |
| O=C(CSc1ncnc2c1cnn2-c1ccccc1)Nc1ccc2c(c1)OCO2 [MLS000041214] | < 2.00 | – |
| Cc1cc(N2CCN(C(=O)c3ccco3)CC2)n2nc(-c3cccc(Cl)c3)cc2n1 [MLS000076302] | < 2.00 | – |
| COC(=O)c1cc(Cl)c(NS(=O)(=O)c2ccccc2)cc1OC [4-(benzenesulfonamido)-5-chloro-2-methoxy-benzoic acid methyl ester] | 4.49 | – |
| CCn1c2c(c3cc(C(=O)O)ccc31)CCCC2=O [9-ethyl-1-oxo-2,3,4,9-tetrahydro-1H-carbazole-6-carboxylic acid] | 4.11 | – |
| CCOc1ccccc1OCC(=O)Nc1ccc(N2CCCCC2)cc1 [2-(2-ethoxyphenoxy)-N-(4-piperidin-1-ylphenyl)acetamide] | < 2.00 | – |

| Structure (SMILES) | pIC50 | pIC50 (inactive by the depositor's call) |
| --- | --- | --- |
| CCOC(=O)C(Cc1ccccc1)C(=O)Nc1nccs1 (stereo unspecified) [2-benzyl-3-keto-3-(thiazol-2-ylamino)propionic acid ethyl ester] | < 2.00 | – |
| Cc1ccccc1Cc1c(C)nc2c(C(=O)N3CCN(Cc4ccc5c(c4)OCO5)CC3)cnn2c1C [3-{[4-(1,3-benzodioxol-5-ylmethyl)piperazin-1-yl]carbonyl}-5,7-dimethyl-6-(2-methylbenzyl)pyrazolo[1,5-a]pyrimidine] | < 2.00 | – |
| Cc1nc2oc3c(NCc4ccccn4)ncnc3c2c2c1COC(C)(C)C2 [MLS000084529] | < 2.00 | – |
| CCC(=O)Nc1nnc(Sc2ccc(N(C)C)cc2)s1 [MLS000109846] | < 2.00 | – |
| Cc1c2ccncc2c(C)c2c1[nH]c1ccccc12 [5,11-dimethyl-2H-pyrido[4,3-b]carbazole] | 3.92 | – |
| O=C(Nc1ccc2nn(-c3ccccc3)nc2c1)c1ccc(Br)o1 [5-bromanyl-N-(2-phenylbenzotriazol-5-yl)furan-2-carboxamide] | 4.49 | – |
| CC(C)(O)P(C)(=O)c1ccccc1 (stereo unspecified) [2-[methyl(phenyl)phosphoryl]-2-propanol] | < 2.00 | – |
| COCCNC(=O)C(C#N)c1nc2ccccc2nc1N1CCCCCC1 (stereo unspecified) [2-[3-(1-azepanyl)-2-quinoxalinyl]-2-cyano-N-(2-methoxyethyl)acetamide] | 3.72 | – |
| CCN(CC)S(=O)(=O)c1ccc(NC(=O)c2cccc3c2C(=O)N(CCOC)C3)cc1 [MLS000045293] | 4.30 | – |
| c1ccc(-c2nc3nonc3c3nc4ccccc4n23)cc1 [5-Phenyl-2-oxa-1,3,4,5a,10-pentaaza-cyclopenta[a]fluorene] | < 2.00 | – |
| COc1ccc(-c2coc3cc(O)ccc3c2=O)cc1OC [3-(3,4-dimethoxyphenyl)-7-hydroxy-1-benzopyran-4-one] | 4.72 | – |
| CCn1c2ccccc2c2nc3cc(OC)c(OC)cc3nc21 [6-Ethyl-2,3-dimethoxy-6H-indolo[2,3-b]quinoxaline] | 4.51 | – |
| CC1=C(C(=O)OCC2CCCO2)C(c2ccncc2)C2C(=O)CCCC2=N1 (stereo unspecified) | 4.57 | – |
| Nc1cccc2c1C(=O)N(c1ccccc1)C2=O [4-azanyl-2-phenyl-isoindole-1,3-dione] | – | 4.22 |
| CCc1nnc2sc(-c3ccc(NC(=O)CSc4ccc(Cl)cc4)cc3)nn12 [2-(4-chlorophenyl)sulfanyl-N-[4-(3-ethyl-[1,2,4]triazolo[3,4-b][1,3,4]thiadiazol-6-yl)phenyl]acetamide] | 4.40 | – |
| O=P1(NC2CCCC2)COc2ccccc2OC1 [MLS000084153] | < 2.00 | – |
| COc1ccc(C2CC(c3cccc(C)c3)n3nc(N)nc3N2)cc1 (stereo unspecified) [5-(4-methoxyphenyl)-7-(3-methylphenyl)-1,5,6,7-tetrahydro-[1,2,4]triazolo[1,5-a]pyrimidin-2-amine] | < 2.00 | – |
| CCOC(=O)N1CCN(C(=O)CCc2c(C)nc3c(c(C)nn3-c3ccc(C)c(C)c3)c2C)CC1 [4-[3-[1-(3,4-dimethylphenyl)-3,4,6-trimethyl-5-pyrazolo[3,4-b]pyridinyl]-1-oxopropyl]-1-piperazinecarboxylic acid ethyl ester] | 4.56 | – |
